Source: patent publication US20200009088A1, “COMPOSITIONS AND METHODS FOR TREATING ANDROGEN-INDEPENDENT CANCER” (The Regents of the University of California, priority 2017, published 2020)
“Also recorded” adds a separate entry of the source.

Key:
Format in all cases: cell-based
CWR22Rv1 cells [1] = test: Cell growth assay (cell numbers), CWR22Rv1; conditions: CWR22Rv1, 48 hours, increasing doses of niclosamide/analogs, FIG. 6
C4-2B MDVR cells = test: Cell growth assay (cell numbers), C4-2B MDVR; conditions: for cell growth: C4-2B MDVR, 48 hours, increasing doses of niclosamide/analogs, FIG. 6; for synergy with abiraterone in inhibiting cell growth / synergy with enzalutamide in inhibiting cell growth: C4-2BMDVR, FIG. 10; for synergy with abiraterone in inhibiting cell growth: analog 0.25 μM + abiraterone 5 μM; for synergy with enzalutamide in inhibiting cell growth: analog 0.25 μM + enzalutamide 20 μM
AR = test: Western blot of AR expression in CWR22Rv1 cell lysates; conditions: CWR22Rv1 cells, FIG. 2A
Description: (§1) “AR-Variants” represents a combination of all forms of AR.
(§2) The effects of the synthetic small molecule modulators on AR and AR variant expression were determined. CWR22Ry1 prostate cancer cells were treated with different compounds. Protein lysates were analyzed for AR and AR variant expression.

AR-V7 = target: T1, AR-V7 (Homo sapiens, UniProt P10275); test: Western blot of AR-V7 expression in CWR22Rv1 cell lysates; set-up: endogenous in cells; host or cells: CWR22Rv1 prostate cancer cells (also grown as xenograft tumours); conditions: CWR22Rv1 cells, FIG. 2A
T1 sequence (P10275 1-644 isoform P10275-3): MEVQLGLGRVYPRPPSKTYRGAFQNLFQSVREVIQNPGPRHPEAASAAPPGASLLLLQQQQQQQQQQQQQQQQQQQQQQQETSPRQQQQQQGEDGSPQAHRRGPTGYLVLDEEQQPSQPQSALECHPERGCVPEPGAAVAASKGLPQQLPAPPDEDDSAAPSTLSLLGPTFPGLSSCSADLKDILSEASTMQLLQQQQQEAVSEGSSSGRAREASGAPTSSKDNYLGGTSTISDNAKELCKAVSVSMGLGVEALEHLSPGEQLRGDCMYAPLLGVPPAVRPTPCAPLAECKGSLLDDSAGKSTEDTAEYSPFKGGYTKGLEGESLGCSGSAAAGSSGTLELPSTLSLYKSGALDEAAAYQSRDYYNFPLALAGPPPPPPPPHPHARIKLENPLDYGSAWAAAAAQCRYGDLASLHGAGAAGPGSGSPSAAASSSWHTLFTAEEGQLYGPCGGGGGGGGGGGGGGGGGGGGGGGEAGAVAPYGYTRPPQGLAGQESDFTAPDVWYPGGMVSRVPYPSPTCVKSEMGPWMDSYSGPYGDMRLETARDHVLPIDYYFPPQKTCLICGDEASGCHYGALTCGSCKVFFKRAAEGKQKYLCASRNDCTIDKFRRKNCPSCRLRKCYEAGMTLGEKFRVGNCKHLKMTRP
Description: as §1, §2

CWR22Rv1 cells [2] = test: Cell growth assay (cell numbers), CWR22Rv1; conditions: for cell growth, combination with bicalutamide: CWR22Rv1, analog 0.25 μM + bicalutamide 20 μM, 0, 3, 5 days, FIG. 12; for cell growth, combination with enzalutamide: CWR22Rv1, analog 0.25 μM + enzalutamide 20 μM, 0, 3, 5 days; for cell growth, combination with enzalutamide / cell growth, combination with abiraterone: FIGS. 9, 11; for cell growth, niclosamide analog alone: CWR22Rv1, analog 0.25 μM, 0, 3, 5 days, FIGS. 9, 11, 12; for synergy with abiraterone in inhibiting cell growth: CWR22Rv1, analog 0.25 μM + abiraterone 5 μM; for cell growth, combination with abiraterone: CWR22Rv1, analog 0.25 μM + abiraterone 5 μM, 0, 3, 5 days
Description: DMSO treatment was used as a negative control. Total cell numbers were counted at 0, 3, and 5 days.
DMSO treatment was used as a negative control. Total cell numbers were counted at 0, 3, and 5 days. […]
The cell growth was determined at 3,5 days. […] The cell growth was determined at 3,5 days.

| Compound | AR expression (AR) | AR-V7 (AR variant) expression (AR-V7) | cell growth, combination with enzalutamide (CWR22Rv1 cells [2]) | cell growth, niclosamide analog alone (CWR22Rv1 cells [2]) | further results |
| --- | --- | --- | --- | --- | --- |
| CNC(=O)c1ccc(N2C(=S)N(c3cnc(C#N)c(C(F)(F)F)c3)C(=O)C23CCC3)cc1F [ARN509, reference compound] | – | – | – | – | cell growth (CWR22Rv1 cells [1]): did not inhibit; cell growth (C4-2B MDVR cells): did not inhibit |
| O=C(Nc1ccc([N+](=O)[O-])cc1Cl)c1cccc(Cl)c1 [Compound 1] | no effect | no effect | nor the was the combination of these compounds with enzalutamide or abiraterone able to inhibit | Neither of Compounds 1 or 34 alone were able to inhibit; also recorded: None of Compounds 1, 7, 30, 31, or 34 alone were able to inhibit | synergy with abiraterone in inhibiting cell growth (C4-2B MDVR cells): neither Compound 1 nor Compound 34 were able to synergize; synergy with enzalutamide in inhibiting cell growth (C4-2B MDVR cells): neither Compound 1 nor Compound 34 were able to synergize; cell growth, combination with bicalutamide (CWR22Rv1 cells [2]): not able to inhibit |
| O=C(Nc1ccc([N+](=O)[O-])cc1Cl)c1ccccc1O [Compound 2] | no effect | no effect | nor was a combination of either of these compounds with enzalutamide or abiraterone able to inhibit | neither Compounds 2 nor Compound 17 alone were able to inhibit | synergy with abiraterone in inhibiting cell growth (CWR22Rv1 cells [2]): but not Compounds 2 and 17, were able to synergize; cell growth, combination with abiraterone (CWR22Rv1 cells [2]): nor was a combination of either of these compounds with enzalutamide or abiraterone able to inhibit |
| O=C(Nc1cc(C(F)(F)F)cc(C(F)(F)F)c1)c1cc(Cl)ccc1O [Compound 5] | inhibited | inhibited | – | – | – |
| O=C(Nc1ccccc1Cl)c1cc(Cl)ccc1O [Compound 8] | no effect | no effect | – | – | – |
| O=C(Nc1cc(C(F)(F)F)cc(C(F)(F)F)c1)c1cc(Cl)ccc1O [Compound 11] | – | – | able to significantly inhibit | – | synergy with abiraterone in inhibiting cell growth (CWR22Rv1 cells [2]): able to synergize; cell growth, combination with abiraterone (CWR22Rv1 cells [2]): able to significantly inhibit; synergy with enzalutamide in inhibiting cell growth (CWR22Rv1 cells [2]; CWR22Rv1, analog 0.25 μM + enzalutamide 20 μM): able to synergize |
| O=C(Nc1cc(F)cc(F)c1)c1cc(Cl)ccc1O [Compound 17] | no effect | no effect | nor was a combination of either of these compounds with enzalutamide or abiraterone able to inhibit | neither Compounds 2 nor Compound 17 alone were able to inhibit | synergy with abiraterone in inhibiting cell growth (CWR22Rv1 cells [2]): but not Compounds 2 and 17, were able to synergize; cell growth, combination with abiraterone (CWR22Rv1 cells [2]): nor was a combination of either of these compounds with enzalutamide or abiraterone able to inhibit |
| O=C(O)COc1ccc(Cl)cc1C(=O)Nc1ccc([N+](=O)[O-])cc1Cl [Compound 29] | no effect | no effect | – | – | – |
| COC(=O)COc1ccc(Cl)cc1C(=O)Nc1ccc([N+](=O)[O-])cc1Cl [Compound 34] | no effect | no effect | nor the was the combination of these compounds with enzalutamide or abiraterone able to inhibit | Neither of Compounds 1 or 34 alone were able to inhibit; also recorded: None of Compounds 1, 7, 30, 31, or 34 alone were able to inhibit | synergy with abiraterone in inhibiting cell growth (C4-2B MDVR cells): neither Compound 1 nor Compound 34 were able to synergize; synergy with enzalutamide in inhibiting cell growth (C4-2B MDVR cells): neither Compound 1 nor Compound 34 were able to synergize; cell growth, combination with bicalutamide (CWR22Rv1 cells [2]): not able to inhibit |
| CC(C)(C)OC(=O)COc1ccc(Cl)cc1C(=O)Nc1ccc([N+](=O)[O-])cc1Cl [Compound 35] | no effect | no effect | – | – | – |
| C[C@]12CC[C@H](O)CC1=CC[C@@H]1[C@@H]2CC[C@]2(C)C(c3cccnc3)=CC[C@@H]12 [abiraterone, reference compound] | – | – | – | – | cell growth (CWR22Rv1 cells [1]): did not inhibit; cell growth (C4-2B MDVR cells): did not inhibit |
